Reference: PMC9101087, “A Sensitive LC-MS/MS Method for the Simultaneous Determination of Two Thia-Analogous Indirubin N-Glycosides and Indirubin-3′-Monoxime in Plasma and Cell Culture Medium” (Molecules, 2022)

How the values were obtained:
[1] = Storage stability in human plasma, LC-MS/MS after plasma precipitation; assay type: in vitro ADME; conditions: for Stability 4 °C / Stability AS (autosampler) / Stability −20 °C / Stability BT (benchtop): 24 h; for Stability FT (freeze-thaw): freeze-thaw cycles; for Stability BT (benchtop): room temperature
Experimental: (§1) To assess stability, low and high concentrations of all analytes were subjected to different storage conditions. […] For determination of long-term stability, samples were stored in either plasma or DMEM at –80 °C for 90 and 91 days, respectively. To measure short-term stability, samples were stored at room temperature, in an autosampler, at 4 °C, and at –20 °C for 24 h. In addition, freeze-thaw cycles were performed according to FDA guidance for the standard solutions. For comparison, at least three freshly prepared samples were prepared for each concentration level. With the exception of autosampler stability, the internal standard was always added to all samples before sample processing was started.
After mixing the 1.5 µM internal standard and the plasma sample, protein precipitation was commenced. Next, 190 µL of acetonitrile and 50 µL of 0.5 M sulfuric acid buffer were added. The tubes were then shaken at 1400 rpm for 5 min followed by centrifugation at 14,000 rpm for 5 min. Subsequently, 195 µL of the supernatant was transferred to an LC tube and analyzed.
(§2) To assess stability, low and high concentrations of all analytes were exposed to different storage conditions. To determine long-term stability, samples were stored in either plasma or DMEM at −80 °C for 90 and 91 days, respectively. To determine short-term stability, samples were stored for 24 h on the bench at room temperature, in the autosampler, at 4 °C, and at −20 °C. In addition, freeze-thaw cycles were performed for the standard solutions according to FDA guidance. At least three freshly prepared samples per concentration level were prepared for comparison. With the exception of the stability test in the autosampler, the internal standard was always added to all samples before sample processing was started. However, to avoid concentration fluctuations due to possible degradation of the analytes, stock solutions were prepared twice a week and stored at −20 °C. Each storage condition was examined in the dark. For all conditions studied, n = 3–6 replicates were prepared.

[2] = Storage stability in human plasma, LC-MS/MS after plasma extraction; assay type: in vitro ADME; conditions: for Stability 4 °C / Stability AS (autosampler) / Stability −20 °C / Stability BT (benchtop): 24 h; for Stability FT (freeze-thaw): freeze-thaw cycles; for Stability −80 °C 90 d: long-term freezing; for Stability BT (benchtop): room temperature
Experimental: as §1
(§3) Liquid-liquid extraction was performed identically for plasma and DMEM samples. After addition of the 1.0 µM internal standard, 50 µL of 0.8 M alkaline carbonate buffer was added. The extraction was performed once with 890 µL ethyl acetate. Tubes were then shaken for 10 min at 1400 rpm using a Thermomixer 5436 (Eppendorf AG, Hamburg, Germany) followed by centrifugation for 5 min at 14,000 rpm using a Centrifuge 5415 C (Eppendorf AG, Hamburg, Germany). Subsequently, 850 µL of the supernatant was transferred to a new tube and evaporated to dryness for 35 min at 35 °C (8 min heating time) using a SpeedVac SPD130DLX (Thermo Fisher Scientific, Asheville, NC, USA). Reconstitution was performed with 200 µL of a acetonitrile/water/H2SO4 [3/0.5/0.5] mixture, shaken at 1400 rpm for 5 min, and centrifuged again at 14,000 rpm for 5 min. Finally, 155 µL of the sample was transferred to an LC vial and analyzed.
as §2

[3] = Storage stability in DMEM, LC-MS/MS after DMEM extraction; assay type: physicochemical; conditions: for Stability 4 °C / Stability AS (autosampler) / Stability −20 °C / Stability BT (benchtop): 24 h; for Stability FT (freeze-thaw): freeze-thaw cycles; for Stability −80 °C 91 d: long-term freezing; for Stability BT (benchtop): room temperature
Experimental: as §1
Regarding the medium, validation procedures were performed with high-glucose DMEM supplemented with 100 U/mL penicillin and 100 μg/mL streptomycin, but not with FBS. With the exception of selectivity, where both media (GlutaMAX™-I or UltraGlutamine^TM I supplement) were tested, only Gibco™ DMEM with GlutaMAX™-I was used for all other analytical procedures.
as §3, §2

[4] = Storage stability in human plasma, LC-MS/MS after plasma precipitation; assay type: in vitro ADME; conditions: long-term freezing

Stability 4 °C ([1]; 2.0 nM) [%] | Stability AS (autosampler) ([1]; 2.0 nM) [%] | Stability −20 °C ([1]; 2.0 nM) [%] | Stability FT (freeze-thaw) ([1]; 2.0 nM) [%] | Stability BT (benchtop) ([1]; 2.0 nM) [%] | Stability 4 °C ([1]; 167 nM) [%] | Stability AS (autosampler) ([1]; 167 nM) [%] | Stability −20 °C ([1]; 167 nM) [%] | Stability FT (freeze-thaw) ([1]; 167 nM) [%] | Stability BT (benchtop) ([1]; 167 nM) [%] | Stability 4 °C ([2]; 3.0 nM) [%] | Stability AS (autosampler) ([2]; 3.0 nM) [%] | Stability −20 °C ([2]; 3.0 nM) [%] | Stability FT (freeze-thaw) ([2]; 3.0 nM) [%] | Stability −80 °C 90 d ([2]; 3.0 nM) [%] | Stability BT (benchtop) ([2]; 3.0 nM) [%] | Stability 4 °C ([2]; 250 nM) [%] | Stability AS (autosampler) ([2]; 250 nM) [%] | Stability −20 °C ([2]; 250 nM) [%] | Stability FT (freeze-thaw) ([2]; 250 nM) [%] | Compound | other results
81.3 ± 3.4 | 97.6 ± 8.0 | 90.1 ± 5.7 | 107.9 ± 4.9 | 57.5 ± 4.1 | 85.5 ± 1.9 | 99.6 ± 4.1 | 96.3 ± 2.3 | 99.5 ± 3.8 | 70.3 ± 3.2 | 85.5 ± 2.2 | 71.8 ± 2.7 | 86.4 ± 3.5 | 99.4 ± 4.0 | 102.5 ± 5.2 | 64.4 ± 3.6 | 94.3 ± 5.7 | 73.1 ± 2.7 | 101.8 ± 3.2 | 99.1 ± 2.0 | O=C1/C(=C2/C(=O)N([C@@H]3O[C@H](CO)[C@@H](O)[C@H](O)[C@@H]3O)c3ccccc32)Sc2ccccc21 [KD85, 3-[3′-oxo-benzo[b]thiophene-2′-(Z)-ylidene]-1-(β-D-mannopyranosyl)-oxindole] | Stability −80 °C 90 d ([2]; 250 nM): 101.7 ± 1.1%; Stability BT (benchtop) ([2]; 250 nM): 76.0 ± 2.6%; Stability 4 °C ([3]; 3.0 nM): 98.3 ± 2.2%; Stability AS (autosampler) ([3]; 3.0 nM): 75.6 ± 5.8%; Stability −20 °C ([3]; 3.0 nM): 86.8 ± 1.8%; Stability FT (freeze-thaw) ([3]; 3.0 nM): 99.4 ± 4.0%; Stability −80 °C 91 d ([3]; 3.0 nM): 93.2 ± 6.9%; Stability BT (benchtop) ([3]; 3.0 nM): 115.3 ± 1.8%; Stability 4 °C ([3]; 40 nM): 80.5 ± 1.8%; Stability AS (autosampler) ([3]; 40 nM): 71.6 ± 1.9%; Stability −20 °C ([3]; 40 nM): 81.9 ± 3.9%; Stability FT (freeze-thaw) ([3]; 40 nM): 99.9 ± 3.3%; Stability −80 °C 91 d ([3]; 40 nM): 92.7 ± 5.7%; Stability BT (benchtop) ([3]; 40 nM): 100.5 ± 1.9%; Stability −80 °C 91 d ([4]; 2.0 nM): 105.1 ± 12.4%; Stability −80 °C 91 d ([4]; 167 nM): 108.2 ± 3.7%
81.4 ± 3.1 | 105.7 ± 6.7 | 94.6 ± 2.8 | 98.8 ± 5.6 | 64.3 ± 5.6 | 84.5 ± 2.0 | 99.9 ± 4.8 | 92.6 ± 2.6 | 97.9 ± 4.1 | 75.0 ± 3.5 | 79.3 ± 2.4 | 80.8 ± 3.0 | 101.4 ± 3.4 | 98.3 ± 5.4 | 100.1 ± 8.4 | 64.4 ± 4.6 | 94.1 ± 5.6 | 73.7 ± 3.3 | 100.1 ± 0.7 | 99.7 ± 2.6 | O=C1/C(=C2/C(=O)N([C@@H]3O[C@H](CO)[C@@H](O)[C@H](O)[C@H]3O)c3ccccc32)Sc2ccccc21 [KD87, 3-[3′-oxo-benzo[b]thiophen-2′-(Z)-ylidene]-1-(β-D-glucopyranosyl)-oxindole] | Stability −80 °C 90 d ([2]; 250 nM): 100.9 ± 3.6%; Stability BT (benchtop) ([2]; 250 nM): 77.8 ± 2.7%; Stability 4 °C ([3]; 3.0 nM): 81.4 ± 3.3%; Stability AS (autosampler) ([3]; 3.0 nM): 101.2 ± 7.4%; Stability −20 °C ([3]; 3.0 nM): 87.7 ± 3.2%; Stability FT (freeze-thaw) ([3]; 3.0 nM): 98.3 ± 5.4%; Stability −80 °C 91 d ([3]; 3.0 nM): 97.8 ± 6.0%; Stability BT (benchtop) ([3]; 3.0 nM): 104.9 ± 4.0%; Stability 4 °C ([3]; 40 nM): 84.5 ± 2.1%; Stability AS (autosampler) ([3]; 40 nM): 81.7 ± 3.7%; Stability −20 °C ([3]; 40 nM): 84.2 ± 2.6%; Stability FT (freeze-thaw) ([3]; 40 nM): 101.9 ± 5.4%; Stability −80 °C 91 d ([3]; 40 nM): 92.3 ± 7.8%; Stability BT (benchtop) ([3]; 40 nM): 98.3 ± 1.1%; Stability −80 °C 91 d ([4]; 2.0 nM): 96.7 ± 8.6%; Stability −80 °C 91 d ([4]; 167 nM): 106.0 ± 1.4%
